Measured values: ChEMBL document CHEMBL1136640, “The newly synthesized linoleic acid derivative FR236924 induces a long-lasting facilitation of hippocampal neurotransmission by targeting nicotinic acetylcholine receptors” (2003)

Legend:
Torpedo [1] = test: Effect on Torpedo nicotinic ACh receptor responses at 0 min determined by measuring percentage of original amplitude
Torpedo [2] = test: Effect on Torpedo nicotinic ACh receptor responses at 10 min determined by measuring percentage of original amplitude
Rattus norvegicus = test: Intraperitoneal dose required to facilitate the hippocampal neurotransmission in rat; assay type: functional, Hippocampus

CCC1CC1CC1CC1CC1CC1CCCCCCCC(=O)O (configuration not stated)
Original amplitude (Torpedo [1]): 87%
Original amplitude (Torpedo [2]): 69%

CCCCCC1CC1CC1CC1CCCCCCCC(=O)O (configuration not stated) [FR-236924]
Original amplitude (Torpedo [1]): 122%
Original amplitude (Torpedo [2]): 156%
Dose (Rattus norvegicus): 2 mg/kg

CCCCCC1CC1CC1CC1CC1CC1CC1CC1CCCC(=O)O (configuration not stated)
Original amplitude (Torpedo [1]): 88%
Original amplitude (Torpedo [2]): 78%

CCCCC/C=C\C/C=C\CCCCCCCC(=O)O
Original amplitude (Torpedo [1]): 72%
Original amplitude (Torpedo [2]): 175%

CC/C=C\C/C=C\C/C=C\CCCCCCCC(=O)O
Original amplitude (Torpedo [1]): 77%
Original amplitude (Torpedo [2]): 272%

CCCCC/C=C\C/C=C\C/C=C\C/C=C\CCCC(=O)O
Original amplitude (Torpedo [1]): 78%
Original amplitude (Torpedo [2]): 139%

CCCCCCCC/C=C\CCCCCCCC(=O)O
Original amplitude (Torpedo [1]): 108%
Original amplitude (Torpedo [2]): 139%

CCCCCCCCC1CC1CCCCCCCC(=O)O (configuration not stated)
Original amplitude (Torpedo [1]): 117%
Original amplitude (Torpedo [2]): 124%
